The results in this text go back to patent publication US9347179B2, “Methods of preserving starch in pulp and controlling calcium precipitation and/or scaling” (Buckman Laboratories International, Inc., priority 2012, dated 2016).

This test has as its system α-amylase (BUZYME 2508). Briefly: α-amylase activity test with RED-STARCH substrate in paper mill process water. The format is biochemical. The settings on record: for effect on the α-amylase activity (in words): high demand solution containing α-amylase, NaOCl at between 10% to 50% of actual chlorine demand; for α-amylase activity: 15 minutes at 40° C. before substrate, 30 minutes at 40° C., percentage of the maximum reading. As for the experimental part: In the experiments described below, amylase activity was measured using a synthetic α-amylase substrate, “RED-STARCH” obtained from MEGAZYME® (Ireland), and a test procedure developed that allows the use of this substrate in complex paper mill process waters including samples containing cellulose.
The indicated test procedure developed for testing paper mill samples for α-amylase activity includes preparation of the substrate by adding 1 g of powdered RED-STARCH substrate to 50 mL of 0.5 M KCl solution ([…]), and warming up to 60° C. whilst shaking vigorously until dissolved. The prepared substrate can be used fresh or stored under refrigeration until used. A concentrated assay buffer solution was prepared as a 300 mM CaCl2.2H2O solution (39.2 g/l), which for use, is diluted 200 times in the assay. Assays can be performed on any liquid sample recovered in a paper mill. Samples with high turbidity may interfere with the final measurement step. Accordingly, samples containing fiber can be filtered through a paper filter, and liquid from high consistency samples can be recovered by squeezing liquid from the sample. To perform the assay on a sample, 30 μl assay buffer, 3 ml RED-STARCH substrate solution, and a 3 ml test sample solution can be added to a 35 ml test vial, and mix and incubate the vial and contents at constant temperature (35-40° C.) for 30 minutes. The reaction is ended by adding 10 ml ethanol (denatured) or methanol and shaking vigorously, and then allowing the vial and its contents to stand for 2 minutes before filtering the contents through a paper filter. High molecular weight material can be removed by the filtering. Using a 10 ml syringe, the filtered liquid is passed through a 0.22 or 0.45 μm disposable filter cartridge. The liquid that passes through the cartridge is introduced into a spectrophotometer cuvette, and the absorbance (OD) of the reaction solution, and a separate reaction blank, are measured using a spectrophotometer. The reaction blank is prepared by adding 10 ml ethanol or methanol to a test vial first, then add 30 μl assay buffer, 3 ml red starch substrate solution, and a 3 ml test solution, and prepare the samples for measurement as above. The spectrophotometer can be a Hach DR/890 Colorimeter (Hach Company, Loveland Colo.), or other spectrophotometer device. Absorbance can be measured as optical density (OD). On incubation of the RED-STARCH substrate with α-amylase, the substrate can be depolymerized to produce low molecular weight dyed fragments which remain in solution on addition of alcohol to the reaction mixture. The measured value of OD is directly proportional to the α-amylase activity in the test sample. Most spectrophotometers have a scale that reads in OD (absorbance) units, which is a logarithmic scale. A user edited program can be entered into the DR/890 device, including choosing a wavelength of 510 nm at which absorbance is measured, using water as a blank (OD=0), and preparing a maximum α-amylase activity sample by adding a small amount of BUZYME® 2508 (Buckman Laboratories, Belgium) to water and using this in the assay (max. OD that can be measured is approximately 25). The range that is obtained with this program is very large and can suffice for all paper mill samples. Using this testing procedure, paper mill samples typically have absorbance values in the range of 1-7. If a sample gives a maximum reading, it can be diluted in water to determine a more precise value. Results can be represented as the actual number or as a percentage of the maximum reading of the procedure which is 25. The results in Table 1 below show results for α-amylase activity as a percentage of the maximum reading.
In the tests conducted, process water was used that was taken from a coated paper machine pulper fill water tank that was not being treated with an oxidizing program. First, the actual chlorine and monochloramine (NH2Cl) demands of this process water were determined (Table 1). […]

Setting [1] is: oxidant added at 10.0% of demand.
The mark [2] stands for this setting: oxidant added at 25.0% of demand.
The mark [3] stands for this setting: oxidant added at 50% of demand (NaOCl printed 50/0%).
[4] abbreviates: oxidant added at 100.0% of demand.

Consider `OCl` [NaOCl, sodium hypochlorite], for which the “effect on the α-amylase activity (in words)” value was “effective to reduce the α-amylase activity”. Moreover, the “activity to inactivate amylases (in words)” value (in direct tests) is “very efficient”. Also, the α-amylase activity under setting [1] is given as 99.2%. The compound further returned a α-amylase activity under setting [2] of 87.4%. Besides, the α-amylase activity under setting [3] is 43.8%. This compound registered a α-amylase activity under setting [4] of 2.1%.
In the case of `NCl` [NH2Cl, monochloramine], the “effect on the α-amylase activity (in words)” value is recorded as “no significant effect”. Moreover, the α-amylase activity under setting [1] is listed as 100.0%. Under setting [2], the α-amylase activity is listed as 98.5%. Under setting [3], this compound yielded a α-amylase activity of 99.3%. This compound yielded a α-amylase activity under setting [4] of 99.1%.
